# Key:
# GABA receptor [1] = assay: In vitro GABA receptor-activating activity, Xenopus oocyte expressing GABA receptor, voltage clamp; format: cell-based, rat; conditions: for GABA response to GABA receptor, relative value of inhibitory potential vs GABA only (set at 100%): GABA 5 μM
# Description: As an experimental material, an oocyte of Xenopus was used. A rat-derived GABA receptor mRNA was injected into the nucleus of an oocyte to express GABA receptor on the surface of the egg. The oocyte was cultured in a normal Ringer's solution for frog (115 mM NaCl, 1 mM KCl, 1.8 mM CaCl2, 5 mM Tris, pH 7.2). Using the resulting oocyte, inhibitory potential of GABA (10 μM) and inhibitory potential of a mixed solution of GABA (10 μM) and the below mentioned sample were measured. Generation of inhibitory potential was measured by voltage clamp method using a voltage clamping amplifier (CEZ-1100; manufactured by NIHON KODEN CORPORATION).
# As a sample, the following 9 kinds of aroma components contained in coffee or teas were used in a concentration of 2 μl/ml. Samples used are as follows: 2-methyl-3-buten-2-ol (expressed by 2-M3BOL in FIG. 1), 3-methyl-2-buten-1-ol (expressed by 3-M2BOL in FIG. 1), 1-penten-3-ol (expressed by 1-POL in FIG. 1), (E)-2-hexen-1-ol (expressed by HXOL in FIG. 1), 1-octen-3-ol (expressed by 1-OCOL in FIG. 1), sotolone (expressed by STOL in FIG. 1), 2,4-dimethylstyrene (expressed by 2,4-DMS in FIG. 1), benzothiazole (expressed by BZT in FIG. 1) and 2,3,5-trimethylphenol (expressed by 2,3,5-TEP in FIG. 1). The aforementioned samples used in the experiment were commercially available products. That is, sotolone manufactured by Ogawa & Co., Ltd. and other compounds manufactured by Tokyo Kasei Co., Ltd. were used.
# As an index, enhancing activity of the sample on inhibitory potential induced by GABA was used. The results are expressed by % increase of the inhibitory potential when GABA and a sample were used in combination, relative to the inhibitory potential generated when only GABA (0.25 μM) was added (set at 100%).
# Dose dependency of 1-octen-3-ol which had been recognized to have a strong activity in Example 1 was studied. The experimental procedures were entirely the same as those of Example 1. The concentration of GABA was 5 μM, and the concentration of 1-octen-3-ol was 0.3 to 1 mM. […] The results shown in FIG. 2 are expressed by the relative value of the inhibitory potential when GABA and 1-octen-3-ol were used in combination, compared to the inhibitory potential generated when only GABA (5 μM) was added (set at 100%).
# As an experimental material, an oocyte of Xenopus was used. A rat-derived GABA receptor mRNA was injected into the nucleus of an oocyte to express GABA receptor on the surface of an egg. The oocyte was cultured in a normal Ringer's solution for frog (115 mM NaCl, 1 mM KCl, 1.8 mM CaCl2, 5 mM Tris, pH 7.2). Generation of the inhibitory potential induced by GABA (0.25 μM) was measured by voltage clamp method using a voltage clamping amplifier (CEZ-1100; manufactured by Nihon Koden corporation).
# As samples, the below-mentioned 4 kinds of aroma components of oolong tea were used in a concentration of 0.5 mM. The samples used are as follows: cis-jasmone, methyl jasmonate, jasmine lactone and linalool oxide.
# Dose dependency of cis-jasmone and methyl jasmonate which had been recognized to have a strong activity in Example 4 was studied. The experimental procedures were entirely the same as those of Example 4. The concentration of GABA was 5 μM, and the concentrations of cis-jasmone and methyl jasmonate were 0.2 to 1 mM. […] The results shown in FIG. 5 are expressed by the relative value of the inhibitory potential when GABA and cis-jasmone and methyl jasmonate were used in combination compared to the inhibitory potential generated when only GABA (5 μM) was added (set at 100%).
# ddy male mice = assay: Enhancing activity on pentobarbital-induced sleep (duration of the sleeping time); format: in vivo
# Description: (§1) As a test animal, ddy male mice (8-week age) were purchased from Shimizu Laboratory Supplies Co., Ltd., pre-bred for one week and used in the experiment. Each five of the mice were bred in a polyisopentene cage (manufactured by Clea Japan. Inc.) in a breeding chamber where the breeding conditions were set at room temperature of 23±2° C., humidity of 55±5%, ventilation frequency of 12 to 15/hour (all fresh air ventilation), and lighting hours of 12 hours/day (from 7 a.m. to 7 p.m.). The mice were fed solid feed CE-2 (Clea Japan Inc.) and were allowed free access to water.
# 1-Octen-3-ol dissolved in olive oil was orally administered to a mouse at a dose of 20 or 100 mg/kg. In each group, 8 mice were used. Thirty minutes later, pentobarbital dissolved in physiological saline was intraperitoneally administered at a dose of 50 mg/kg, and duration of the sleeping time was measured. The sleeping time was defined as the time period from the loss of righting reflex until its recovery.
# The experimental results shown in FIG. 3 are expressed by average±standard error, and Student t-test was used in a significant difference test.
# as §1, with “Co.,” for “Co., Ltd.,”, “one week,” for “one week”, “air ventilation)” for “air ventilation),”, “12 hours a day” for “12 hours/day”, “(Clea Japan.” for “(Clea Japan”
# A mouse was made to aspirate cis-jasmone and methyl jasmonate diluted to 0.1% in an exposure box until the completion of the experiment. In each group, 5 mice were used. Thirty minutes after initiation of aspiration, pentobarbital dissolved in physiological saline was intraperitoneally administered at a dose of 50 mg/kg, and duration of the sleeping time was measured. […]
# rat = conditions: cited from earlier work; for development of gastric ulcer: cold-restraint stress (4° C., 2 hours), intraventricular administration
# [2] = 1998-1999 Scientific Research Subsidy Research Outcome Report; cited from earlier work
# GABA receptor [3] = conditions: Biosci. Biotechnol. Biochem., 63, 743-748, 1999; cited from earlier work
# [4] = Example 4, FIG. 4, sample 0.5 mM, GABA 0.25 μM
# [5] = Example 5, FIG. 5, sample 0.2 to 1 mM
# [6] = Example 6, FIG. 6, aspiration of sample diluted to 0.1% in exposure box, pentobarbital 50 mg/kg i.p. after 30 min
compound,measurement,setting,value
C=CC(O)CCCCC (centres unmarked) [1-octen-3-ol],enhancing activity of the sample on inhibitory potential induced by GABA,"GABA receptor [1]; Example 1, FIG. 1, sample 2 μl/ml, GABA 10 μM / 0.25 μM",strong activity to enhance the response
same,"GABA response to GABA receptor, relative value of inhibitory potential vs GABA only (set at 100%)","GABA receptor [1]; Example 2, FIG. 2, 1-octen-3-ol 0.3 to 1 mM",up to 400%
same,duration of the sleeping time induced by pentobarbital,"ddy male mice; Example 3, FIG. 3, orally 20 or 100 mg/kg in olive oil, 30 min before pentobarbital 50 mg/kg i.p.",extended duration of the sleeping time induced by pentobarbital in a dose dependent manner
NCCCC(=O)O [GABA],development of gastric ulcer,rat,suppressed in a dose dependent manner
NCc1cc(=O)[nH]o1 [Muscimol],development of gastric ulcer,rat,suppressed in a dose dependent manner
CN1CCc2cc3c(cc2[C@H]1[C@@H]1OC(=O)c2c1ccc1c2OCO1)OCO3 [bicuculine],effect on the inhibitory effect of GABA on stress ulceration,"rat; cold-restraint stress, bicuculine 40 μg",diminishes the inhibitory effect of GABA on stress ulceration
CC/C=C\CC1=C(C)CCC1=O [cis-jasmone],enhancing activity of the sample on inhibitory potential induced by GABA,GABA receptor [1]; [4],activity to enhance the response
same,"GABA response to GABA receptor, relative value of inhibitory potential vs GABA only (set at 100%)",GABA receptor [1]; [5],up to 200%
same,duration of the sleeping time induced by pentobarbital,ddy male mice; [6],significantly extended duration of the sleeping time
CCCCCCO [hexanol],stress relaxing activity,[2],stress relaxing activity
same,GABA receptor-activating activity,GABA receptor [3],has GABA receptor-activating activity
CC/C=C\CC1C(=O)CCC1CC(=O)OC (centres unmarked) [methyl jasmonate],enhancing activity of the sample on inhibitory potential induced by GABA,GABA receptor [1]; [4],activity to enhance the response
same,"GABA response to GABA receptor, relative value of inhibitory potential vs GABA only (set at 100%)",GABA receptor [1]; [5],≤ 300%
same,duration of the sleeping time induced by pentobarbital,ddy male mice; [6],significantly extended duration of the sleeping time
